Like-named read-outs stand apart in the source and are kept apart here.
What was measured:
[1] = tested on: ECM1; test: ECM1 in medium of Ect1 post-LPS treatment, ELISA; format: cell-based; details: 24 h, vs control untreated cells, ± SEM
Procedure: (§1) At Day 1, cell culture was removed and substituted with KSFM without growth factor supplement. Cells were then treated with increasing doses of LPS (10 μg/ml, 25 μg/ml, 50 μg/ml) at Day 2.

[2] = tested on: GGH; test: GGH in medium of End1 post-LPS treatment, ELISA; format: cell-based; details: for Fold change GGH expression: 24 h, vs control untreated cells, ± SEM
Procedure: as §1

[3] = tested on: FGA; test: FGA in medium of End1 post-LPS treatment, ELISA; format: cell-based; details: for Fold change FGA expression: 24 h, vs control untreated cells, ± SEM
Procedure: as §1

[4] = tested on: GGH; test: GGH in medium of Ect1 post-LPS treatment, ELISA; format: cell-based; details: for Fold change GGH expression: 24 h, vs control untreated cells, ± SEM
Procedure: as §1

[5] = tested on: FGA; test: FGA in medium of Ect1 post-LPS treatment, ELISA; format: cell-based; details: for Fold change FGA expression: 24 h, vs control untreated cells, ± SEM
Procedure: as §1

[6] = tested on: LAMC2; test: LAMC2 in medium of Ect1 post-LPS treatment, ELISA; format: cell-based; details: Ect1, 50 μg/ml LPS, 24 h, vs control untreated cells, ± SEM
Procedure: as §1

[7] = tested on: ECM1; test: ECM1 in medium of End1 post-LPS treatment, ELISA; format: cell-based; details: for Fold change ECM1 expression: 24 h, vs control untreated cells, ± SEM
Procedure: as §1

[8] = tested on: LAMC2; test: LAMC2 in medium of End1 post-LPS treatment, ELISA; format: cell-based; details: 24 h, vs control untreated cells, ± SEM
Procedure: as §1

[9] = tested on: GGH; test: GGH in medium of Ect1 post-H2O2 treatment, ELISA; details: for Fold change GGH expression: vs control untreated cells, ± SEM
[10] = tested on: FGA; details: End1, 100 μM H2O2, 24 h, vs control untreated cells, ± SEM
[11] = tested on: ECM1; details: Ect1, 200 μM H2O2, 24 h, vs control untreated cells, ± SEM
[12] = tested on: LAMC2; test: LAMC2 in medium of End1 post-H2O2 treatment, ELISA; details: vs control untreated cells, ± SEM
[13] = tested on: GGH; test: GGH in medium of End1 post-H2O2 treatment, ELISA; details: vs control untreated cells, ± SEM
[14] = tested on: End1 cells; details: MTT, vs untreated control; for decrease in cell viability: significant
[15] = tested on: ECM1; test: ECM1 in medium of End1 post-H2O2 treatment, ELISA; details: vs control untreated cells, ± SEM
[16] = tested on: Ect1 cells; test: MTT assay, cell viability and proliferation after H2O2 treatment, Ect1; details: vs untreated control
[17] = tested on: EFEMP1; details: End1, 100 μM H2O2, 24 h, vs control untreated cells, ± SEM
[18] = End1, LPS treatment, dose not specified
[19] = Ect1, 3 different doses of LPS, statistically insignificant

## Lipopolysaccharide [LPS]
[1]; Ect1, 10 μg/ml LPS
  Fold change ECM1 expression: 0.87 ± 0.18 fold
[1]; Ect1, 50 μg/ml LPS
  Fold change ECM1 expression: 0.81 ± 0.17 fold
[2]; End1, 10 μg/ml LPS
  Fold change GGH expression: 0.69 ± 0.15 fold
[2]; End1, 25 μg/ml LPS
  Fold change GGH expression: 0.92 ± 0.19 fold
[2]; End1, 50 μg/ml LPS
  Fold change GGH expression: 0.76 ± 0.13 fold
[2]; [18]
  GGH expression level in conditioned media: down-regulated
[3]; End1, 10 μg/ml LPS
  Fold change FGA expression: 0.90 ± 0.10 fold
[3]; End1, 25 μg/ml LPS
  Fold change FGA expression: 0.92 ± 0.15 fold
[3]; End1, 50 μg/ml LPS
  Fold change FGA expression: 0.78 ± 0.10 fold
[3]; [18]
  FGA expression level in conditioned media: down-regulated
[4]; Ect1, 10 μg/ml LPS
  Fold change GGH expression: 1.67 ± 0.40 fold
[4]; Ect1, 25 μg/ml LPS
  Fold change GGH expression: 1.42 ± 0.23 fold
[4]; Ect1, 50 μg/ml LPS
  Fold change GGH expression: 1.80 ± 0.52 fold
[4]; [19]
  GGH expression in conditioned media: slight increases
[5]; Ect1, 10 μg/ml LPS
  Fold change FGA expression: 1.05 ± 0.15 fold
[5]; Ect1, 25 μg/ml LPS
  Fold change FGA expression: 1.13 ± 0.12 fold
[5]; Ect1, 50 μg/ml LPS
  Fold change FGA expression: 1.19 ± 0.22 fold
[5]; [19]
  FGA expression in conditioned media: slight increases
[6]
  Fold change LAMC2 expression: 5.99 ± 1.86 fold
[7]; End1, 10 μg/ml LPS
  Fold change ECM1 expression: 0.94 ± 0.14 fold
[7]; End1, 25 μg/ml LPS
  Fold change ECM1 expression: 0.87 ± 0.11 fold
[7]; End1, 50 μg/ml LPS
  Fold change ECM1 expression: 0.76 ± 0.11 fold
[7]; End1, LPS treatment, dose not specified, statistically insignificant
  ECM1 expression in conditioned media: small decrease
[8]; End1, 10 μg/ml LPS
  Fold change LAMC2 expression: ~8 fold
[8]; End1, 25 μg/ml LPS
  Fold change LAMC2 expression: ~8 fold
[8]; End1, 50 μg/ml LPS
  Fold change LAMC2 expression: ~8 fold

## OO [H2O2, Hydrogen peroxide]
[9]; Ect1, 200 μM H2O2, 24 h
  Fold change GGH expression: 0.73 ± 0.16 fold
[9]; Ect1, 400 μM H2O2, 24 h
  Fold change GGH expression: 1.01 ± 0.25 fold
[9]; Ect1, H2O2 24 h, dose not given
  GGH expression upon H2O2 treatment: remained relatively unchanged
[10]
  Fold change FGA expression: 0.96 ± 0.21 fold
[11]
  Fold change ECM1 expression: 1.09 ± 0.21 fold
[12]; End1, 100 μM H2O2, 24 h
  Fold change LAMC2 expression: 1.15 ± 0.17 fold
[12]; End1, 200 μM H2O2, 24 h
  Fold change LAMC2 expression: 0.95 ± 0.16 fold
[13]; End1, 100 μM H2O2, 24 h
  Fold change GGH expression: 0.75 ± 0.16 fold
[13]; End1, 200 μM H2O2, 24 h
  Fold change GGH expression: 0.86 ± 0.18 fold
[14]; 50 μM H2O2, 24 h
  effect on cell viability: no effect
[14]; 100 μM H2O2, 24 h
  decrease in cell viability: ~20%
[14]; 200 μM H2O2, 24 h
  decrease in cell viability: ~50%
[14]; 400 μM H2O2, 24 h
  decrease in cell viability: ~90%
[15]; End1, 100 μM H2O2, 24 h
  Fold change ECM1 expression: 1.02 ± 0.16 fold
[15]; End1, 200 μM H2O2, 24 h
  Fold change ECM1 expression: 0.90 ± 0.07 fold
[16]; 50 μM H2O2, 24 h
  effect on cell viability: did not affect cell viability
[16]; 100 μM H2O2, 24 h
  effect on cell viability: did not affect cell viability
[16]; 200 μM H2O2, 24 h, not statistically significant
  decrease in cell density: 20%
[16]; 400 μM H2O2, 24 h, significant
  decrease in cell viability: ~50%
[17]
  Fold change EFEMP1 expression: 0.73 ± 0.12 fold

Reference: patent US20200319197A1, “Biomarkers of Preterm Birth” (Carmentix PTE. Ltd., priority 2017, published 2020)
